Peptide text beside a SMILES is read from it.
Key:
SSPE Yamagata-1 strain [1] = experiment: Viral plaque reduction assay, SSPE virus in Vero cells; type: cell-based, SSPE virus (variant measles virus); settings: for inhibition of plaque formation compared with the control group, SSPE Yamagata-1 strain (peptide screening): peptide 10 μM, Vero cells and Vero/SLAM cells (Fig 2C), duplicate, at least twice independently; for EC50: plaque reduction, SSPE Yamagata-1 strain, mean ± SD; for EC50 / SI, SSPE virus (Vero cells): Vero cells; for SI, SSPE virus (Vero cells): selectivity index, ratio of CC50 relative to EC50
Experimental: (§1) African green monkey kidney (Vero) cells and Vero cells expressing human SLAM (Vero/SLAM cells) were used in all experiments. The growth medium for Vero cells comprised minimal essential medium (MEM) supplemented with 10% heat-inactivated newborn bovine serum, penicillin G (100 IU/ml), streptomycin (100 μg/ml), and L-glutamine (300 μg/ml). The same growth medium, which was further supplemented with G418 (400 μg/ml), was used for Vero/SLAM cells. Cells were seeded into the wells (22 mm) of 12-well tissue culture plates at 1 × 10^5 cells/well and incubated at 37°C in a 10% CO2 incubator for 3 days, at which time they had just reached confluence. The virus strains used were human MV Edmonston strain and SSPE Yamagata-1 [34], which was originally isolated from the brain of an SSPE patient. The Edmonston strain of MV was used to inoculate Vero/SLAM cells and harvested after freeze–thawing infected cells. The SSPE Yamagata-1 strain was cultured in Vero/SLAM cells, harvested by trypsinization, prepared as an infected cell suspension in the Vero/SLAM cell medium supplemented with 10% dimethyl sulfoxide, and stored at −80°C until use.
(§2) Screening was performed to evaluate the antiviral effects of each synthetic peptide against the MV and SSPE viruses using the viral plaque reduction assay. Based on the results of the peptide screening, the 50% effective concentration (EC50), i.e., the concentration of compounds required to inhibit virus plaque formation by 50%, was also determined. The Human MV Edmonston strain was used to produce cell-free virions, which yielded a reproducible number of syncytia [generally 200–300 plaque-forming units (PFUs)] in the control wells. The SSPE virus was also used to yield a reproducible number of syncytia (generally 70–150 PFU) in control wells. In the peptide screening assay, each synthetic peptide was used at a concentration of 10 μM. IFN-α and enfuvirtide, a peptide fusion inhibitor of HIV-1, were used as controls at a concentration of 250 IU/ml and 10 μM, respectively.

SSPE Yamagata-1 strain [2] = experiment: Viral plaque reduction assay, SSPE virus in Vero/SLAM cells; type: cell-based, SSPE virus (variant measles virus); settings: for EC50: plaque reduction, SSPE Yamagata-1 strain, mean ± SD; for SI, SSPE virus (Vero/SLAM cells): selectivity index, ratio of CC50 relative to EC50
Experimental: as §1, §2

MV Edmonston strain = experiment: Viral plaque reduction assay, measles virus in Vero cells; type: cell-based; settings: for EC50: plaque reduction, MV Edmonston strain, mean ± SD; for EC50 / SI, measles virus (Vero cells): Vero cells; for SI, measles virus (Vero cells): selectivity index, ratio of CC50 relative to EC50
Experimental: as §1, §2

SSPE virus = experiment: Time-of-addition experiments, SSPE virus in Vero cells; type: cell-based, SSPE virus (variant measles virus)
Experimental: Synthetic peptides, M1 and M2EK (10 μM each) were used in time-of-addition experiments. Each peptide was added to Vero cells at three distinct time points: prior to infection (pretreatment with the compound), at the same time as the virus infection (simultaneous infection), or post-infection (post-entry). The SSPE virus was prepared to yield a reproducible number of syncytia in untreated control wells (approximately 50–100/well). In the pretreatment assay, peptide was added to confluent cells and incubated at 37°C for 30 min, and the cell cultures were washed with MEM before viral inoculation. Cells were then challenged with the SSPE virus at 0°C for 30 min. In the simultaneous infection assay, SSPE virus with peptide was inoculated at 0°C for 30 min. After the adsorption, the cell cultures were subsequently washed with MEM, and growth medium containing 0.75% methylcellulose was overlaid on the cell cultures, followed by incubation for 3 days in both pretreatment and simultaneous infection assays. In the post-entry assay, cells were challenged with the SSPE virus at 0°C for 30 min. After adsorption, the cell cultures were subsequently washed with MEM and peptide, which was prepared in growth medium containing 0.75% methylcellulose, was subsequently overlaid on the cell cultures at distinct time points. The starting point when cells were incubated at 0°C for 30 min was defined as t0.

[3] = In vivo toxicity, mice administered peptides alone; set-up: species or system BALB/cAJcl-nu/nu mice; settings: peptide 100 μM intracranial, no virus infection
Experimental: Based on a previous report, but with slight modifications, 3-week-old female BALB/cAJcl-nu/nu mice (CLEA Japan Inc., Tokyo, Japan) were used in the animal experiments. Mice were divided in four groups (n = 6 for each cage) and housed with free access to both water and food and monitored daily. The mice were SSPE virus-infected or mock-infected (MEM alone) intracranially. An SSPE virus-infected cell suspension containing 250 PFU/ 30 μl (100% lethal dose) was inoculated into the subarachnoid space of nude mice using a 27-gauge double needle at a depth of 2 mm. Each compound was prepared at a concentration of 100 μM and was injected intracranially at 0 (mixed with viruses), 6, and 24 h after the initial virus inoculation. All injections were performed under inhalational anesthesia with isoflurane. Each mouse was checked for neurological symptoms and weighed daily. The ethical endpoint was defined as <75% of their maximum weight because most mice would die within 24 h. On attaining this endpoint, the mice were sacrificed by cervical dislocation under inhalational anesthesia with isoflurane. In this experiment, five mice died of natural causes before the ethical endpoint; however, all mice had neurological symptoms and 9.5%, 13.2%,14.5%, 15.8%, 16.4% weight loss (one each) relative to their maximum weight. This study was approved by the control of the Animal Research Committee in accordance with the Guidelines on Animal Experiments in Fukushima Medical University and the Rules for the Protection and Care of Animals (approval number: 23038).

Vero cells = experiment: Methyl tetrazolium cytotoxicity assay, Vero cells; type: cell-based, African green monkey; settings: confluent Vero cells, 24 h, 37°C
Experimental: (§3) Peptide cytotoxicity was determined using the methyl tetrazolium assay. Five-fold serial dilutions of peptides were added to confluent Vero or Vero/SLAM cells. Cells were then incubated at 37°C for 24 h, and the number of viable cells was determined using 3-(4,5-dimethyllthiazol-2-yl)-2,5-diphenylterazolium bromide (Sigma–Aldrich, Tokyo, Japan). The 50% cytotoxic concentration (CC50), which was defined as the concentration required to reduce the cell viability by 50% relative to that of untreated controls, was determined. The selectivity index (SI) was defined as the ratio of the CC50 relative to the EC50 value.

Vero/SLAM cells = experiment: Methyl tetrazolium cytotoxicity assay, Vero/SLAM cells; type: cell-based, African green monkey; settings: confluent Vero/SLAM cells, 24 h, 37°C
Experimental: as §3

Row | Compound | inhibition of plaque formation compared with the control group, SSPE Yamagata-1 strain (peptide screening) (SSPE Yamagata-1 strain [1]) | EC50 (SSPE Yamagata-1 strain [1]) | EC50 (SSPE Yamagata-1 strain [2]) | EC50 (MV Edmonston strain) | SI, measles virus (Vero cells) (MV Edmonston strain) | SI, SSPE virus (Vero cells) (SSPE Yamagata-1 strain [1]) | SI, SSPE virus (Vero/SLAM cells) (SSPE Yamagata-1 strain [2]) | viral inhibitory effect, peptide added post-infection (post-entry) (SSPE virus; peptide 10 μM overlaid at distinct time points after adsorption) | viral plaque numbers, peptide added before viral adsorption or at the same time as virus inoculation (SSPE virus; peptide 10 μM, pretreatment 37°C 30 min or simultaneous with SSPE virus 0°C 30 min, compared with control) | survival of mice administered with peptides alone, with no symptoms [3] | CC50, SSPE virus (Vero cells) (Vero cells) | CC50, measles virus (Vero cells) (Vero cells) | CC50, SSPE virus (Vero/SLAM cells) (Vero/SLAM cells) | inhibition of MV Edmonston plaque formation compared with the control group (peptide screening) (MV Edmonston strain; peptide 10 μM (Fig 2C), duplicate, at least twice independently)
1 | CC[C@H](C)[C@H](NC(C)=O)C(=O)N[C@@H](CCC(=O)O)C(=O)N[C@@H](CCC(=O)O)C(=O)N[C@@H](CCC(=O)O)C(=O)N[C@@H](CCCNC(=N)N)C(=O)N[C@@H](CCCCN)C(=O)N[C@@H](CCCCN)C(=O)N[C@H](C(=O)N[C@@H](CCC(=O)O)C(=O)N[C@@H](CCC(=O)O)C(=O)N[C@@H](CC(N)=O)C(=O)N[C@@H](CC(C)C)C(=O)N[C@@H](CCCCN)C(=O)N[C@@H](CCCCN)C(=O)N[C@@H](C)C(=O)N[C@@H](CCC(=O)O)C(=O)N[C@@H](CCC(=O)O)C(=O)N[C@@H](CCCCN)C(=O)N[C@@H](CC(C)C)C(=O)N[C@@H](CCCCN)C(=O)N[C@@H](CCCCN)C(=O)N[C@@H](C)C(=O)N[C@@H](CCC(=O)O)C(=O)N[C@@H](CCC(=O)O)C(=O)N[C@@H](CC(C)C)C(=O)N[C@@H](CC(C)C)C(=O)N[C@@H](CCCCN)C(=O)N[C@@H](CCCCN)C(=O)N[C@@H](CO)C(=O)N[C@@H](CCC(=O)O)C(=O)N[C@@H](CCC(=O)O)C(=O)N[C@H](C(=O)N[C@@H](CC(C)C)C(=O)N[C@@H](CCCCN)C(=O)N[C@@H](CCCCN)C(N)=O)[C@@H](C)CC)C(C)C [Peptide M1EK] (Ac-IEEERKKVEENLKKAEEKLKKAEELLKKSEEILKK-NH2) | > 97% | 0.12 ± 0.05 µM | 0.17 ± 0.02 µM | – | – | – | – | – | – | – | – | – | – | –
2 | CC[C@H](C)[C@H](NC(C)=O)C(=O)N[C@@H](CO)C(=O)N[C@@H](CC(C)C)C(=O)N[C@@H](CCC(=O)O)C(=O)N[C@@H](CCCNC(=N)N)C(=O)N[C@@H](CC(C)C)C(=O)N[C@@H](CC(=O)O)C(=O)N[C@H](C(=O)NCC(=O)N[C@H](C(=O)N[C@@H](CC(N)=O)C(=O)N[C@@H](CC(C)C)C(=O)NCC(=O)N[C@@H](CC(N)=O)C(=O)N[C@@H](C)C(=O)N[C@H](C(=O)N[C@@H](C)C(=O)N[C@@H](CCCCN)C(=O)N[C@@H](CC(C)C)C(=O)N[C@@H](CCC(=O)O)C(=O)N[C@@H](CC(=O)O)C(=O)N[C@@H](C)C(=O)N[C@@H](CCCCN)C(=O)N[C@@H](CCC(=O)O)C(=O)N[C@@H](CC(C)C)C(=O)N[C@@H](CC(C)C)C(=O)N[C@@H](CCC(=O)O)C(=O)N[C@@H](CO)C(=O)N[C@@H](CO)C(=O)N[C@@H](CC(=O)O)C(=O)N[C@@H](CCC(N)=O)C(=O)N[C@H](C(=O)N[C@@H](CC(C)C)C(=O)N[C@@H](CCCNC(=N)N)C(=O)N[C@@H](CO)C(N)=O)[C@@H](C)CC)[C@@H](C)CC)[C@@H](C)O)C(C)C [Peptide M1] | > 97% | 0.01 ± 0.01 µM | 0.01 ± 0.01 µM | 0.03 ± 0.01 µM | >3663 | >7519 | >9524 | observed in a time-dependent manner, particularly within 24 h | no reduction in viral plaque numbers | > 45 days | – | – | – | –
3 | CC[C@H](C)[C@H](NC(=O)[C@H](C)NC(=O)[C@H](CC(N)=O)NC(=O)CNC(=O)[C@H](CC(C)C)NC(=O)[C@H](CC(N)=O)NC(=O)[C@@H](NC(=O)CNC(=O)[C@@H](NC(C)=O)C(C)C)[C@@H](C)O)C(=O)N[C@@H](C)C(=O)N[C@@H](CCCCN)C(=O)N[C@@H](CC(C)C)C(=O)N[C@@H](CCC(=O)O)C(=O)N[C@@H](CC(=O)O)C(=O)N[C@@H](C)C(=O)N[C@@H](CCCCN)C(=O)N[C@@H](CCC(=O)O)C(=O)N[C@@H](CC(C)C)C(=O)N[C@@H](CC(C)C)C(=O)N[C@@H](CCC(=O)O)C(=O)N[C@@H](CO)C(=O)N[C@@H](CO)C(=O)N[C@@H](CC(=O)O)C(=O)N[C@@H](CCC(N)=O)C(=O)N[C@H](C(=O)N[C@@H](CC(C)C)C(=O)N[C@@H](CCCNC(=N)N)C(=O)N[C@@H](CO)C(=O)N[C@@H](CCSC)C(=O)N[C@@H](CCCCN)C(=O)NCC(=O)N[C@@H](CC(C)C)C(=O)N[C@@H](CO)C(=O)N[C@@H](CO)C(=O)N[C@H](C(N)=O)[C@@H](C)O)[C@@H](C)CC [Peptide M2] | – | 0.26 ± 0.17 µM | 0.48 ± 0.22 µM | 0.12 ± 0.04 µM | >805 | >377 | >209 | – | – | – | >100 µM | >100 µM | >100 µM | –
4 | Enfuvirtide | lower antiviral activity | > 10 µM | > 10 µM | > 10 µM | – | – | – | – | – | – | – | – | – | lower antiviral activity
5 | enfuvirtide | – | – | – | – | – | – | – | – | – | > 45 days | >100 µM | >100 µM | >100 µM | –
